The values below come from US7662832B2, “Pyrrolo[2,3-c]pyridine derivatives and processes for the preparation thereof” (priority 2004, dated 2010).

SMILES strings stand for the structures. pIC50: −log10 of the molar value. Structures can show the parent of a compound that is named as a salt.

Proton Pump (H^+/K^+-ATPase), sequence (P19156 2-1034 limits assumed): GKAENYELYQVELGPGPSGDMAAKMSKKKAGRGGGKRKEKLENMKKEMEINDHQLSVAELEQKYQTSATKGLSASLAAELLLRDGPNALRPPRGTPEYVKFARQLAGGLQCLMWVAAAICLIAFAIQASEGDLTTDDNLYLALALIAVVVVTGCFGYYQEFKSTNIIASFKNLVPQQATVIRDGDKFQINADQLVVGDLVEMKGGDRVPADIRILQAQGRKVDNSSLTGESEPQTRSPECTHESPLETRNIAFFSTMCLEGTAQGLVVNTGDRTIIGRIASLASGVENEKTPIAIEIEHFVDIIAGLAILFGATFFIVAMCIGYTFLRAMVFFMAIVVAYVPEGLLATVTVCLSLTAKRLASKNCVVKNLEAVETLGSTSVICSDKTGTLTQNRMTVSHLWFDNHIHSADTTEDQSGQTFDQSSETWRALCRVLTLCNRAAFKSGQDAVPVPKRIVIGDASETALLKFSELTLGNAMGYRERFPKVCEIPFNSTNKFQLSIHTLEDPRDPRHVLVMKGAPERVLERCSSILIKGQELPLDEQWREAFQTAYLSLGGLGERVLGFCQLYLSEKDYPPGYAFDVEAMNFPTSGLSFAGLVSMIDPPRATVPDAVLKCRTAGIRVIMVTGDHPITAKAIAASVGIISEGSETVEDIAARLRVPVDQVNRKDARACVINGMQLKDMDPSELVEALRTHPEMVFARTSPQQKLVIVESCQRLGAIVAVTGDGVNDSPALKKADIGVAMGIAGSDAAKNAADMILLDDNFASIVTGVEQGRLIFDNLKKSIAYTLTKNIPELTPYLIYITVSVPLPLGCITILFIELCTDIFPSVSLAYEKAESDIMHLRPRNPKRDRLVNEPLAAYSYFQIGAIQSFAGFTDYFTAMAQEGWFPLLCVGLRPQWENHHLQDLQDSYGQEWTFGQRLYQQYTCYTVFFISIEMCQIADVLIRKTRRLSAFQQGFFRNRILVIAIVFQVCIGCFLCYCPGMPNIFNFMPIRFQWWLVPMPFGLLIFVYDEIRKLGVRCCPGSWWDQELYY
Proton Pump (H^+/K^+-ATPase), sequence (P18434 whole entry partner): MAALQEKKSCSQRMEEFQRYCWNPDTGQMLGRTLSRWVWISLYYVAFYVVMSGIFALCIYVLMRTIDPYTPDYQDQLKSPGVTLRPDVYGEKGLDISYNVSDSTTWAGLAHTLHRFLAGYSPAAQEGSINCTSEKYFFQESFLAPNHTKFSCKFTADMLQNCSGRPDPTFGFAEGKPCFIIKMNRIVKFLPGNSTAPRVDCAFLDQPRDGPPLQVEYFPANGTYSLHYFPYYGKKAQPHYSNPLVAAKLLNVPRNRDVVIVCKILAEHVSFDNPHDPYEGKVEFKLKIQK

This assay has as its target Proton Pump (H^+/K^+-ATPase) (Sus scrofa, UniProt P19156). The assay is described as follows: Inhibitory effects on proton pump (H^+/K^+-ATPase) activity. It counts as biochemical. As to conditions: hog gastric vesicles; K^+ stimulated H^+/K^+-ATPase activity; 30 minutes at 37° C.
The compound `COc1cccc(Cn2c(C)c(C)c3cc(CN4CCN(C)CC4)nc(N4CCc5ccccc5C4)c32)c1` [Example 876, 2-[1-(3-methoxybenzyl)-2,3-dimethyl-5-(4-methylpiperazin-1-ylmethyl)-1H-pyrrolo[2,3-c]pyridin-7-yl]-1,2,3,4-tetrahydroisoquinoline hydrochloride] gave a pIC50 of 7.00.
On to `COc1ccc(Cn2c(C)c(C)c3cc(C(=O)N4CCN(C)CC4)nc(N4CCc5ccccc5C4)c32)cc1` [Example 829, [7-(3,4-dihydro-1H-isoquinolin-2-yl)-1-(4-methoxybenzyl)-2,3-dimethyl-1H-pyrrolo[2,3-c]pyridin-5-yl]-(4-methylpiperazin-1-yl)-methanone hydrochloride], for which the pIC50 was 7.10.
Next, `C=CCn1c(C)c(C)c2cc(C(=O)N3CCNCC3)nc(N3CCc4ccccc4C3)c21` [Example 811, [1-allyl-7-(3,4-dihydro-1H-isoquinolin-2-yl)-2,3-dimethyl-1H-pyrrolo[2,3-c]pyridin-5-yl]-(piperazin-1-yl)-methanone hydrochloride]: 8.52; `COc1cccc(Cn2c(C)c(C)c3ccnc(COc4ccc(C)cc4)c32)c1` [Example 16, 1-(3-methoxybenzyl)-2,3-dimethyl-7-(p-tolyloxymethyl)-1H-pyrrolo[2,3-c]pyridine hydrochloride]: 6.74.
On to `CCn1c(C)c(C)c2ccnc(N3CCc4cc(F)ccc4C3C)c21` (centres unmarked) [Example 562, 2-(1-ethyl-2,3-dimethyl-1H-pyrrolo[2,3-c]pyridin-7-yl)-6-fluoro-1-methyl-1,2,3,4-tetrahydroisoquinoline hydrochloride], for which the negative-log IC50 (pIC50) is 7.24.
`C=Cc1ccc(-c2nccc3c(C)c(C)n(Cc4ccc(C)cc4)c23)cc1` [Example 244, 2,3-dimethyl-1-(4-methylbenzyl)-7-(4-vinylphenyl)-1H-pyrrolo[2,3-c]pyridine hydrochloride] gave a pIC50 of 7.05.
`Cc1c(C)n(Cc2cccc(F)c2)c2c(N3CCc4ccccc4C3)nc(CF)cc12` [Example 885, 2-[1-(3-fluorobenzyl)-5-fluoromethyl-2,3-dimethyl-1H-pyrrolo[2,3-c]pyridin-7-yl]-1,2,3,4-tetrahydroisoquinoline hydrochloride] showed a pIC50 of 6.66.
`Cc1c(C)n(Cc2ccccn2)c2c(N3CCc4ccccc4C3)nccc12` [Example 517, 1-(pyridin-2-ylmethyl)-7-(1,2,3,4-tetrahydroisoquinolin-2-yl)-2,3-dimethyl-1H-pyrrolo[2,3-c]pyridine hydrochloride] showed a pIC50 of 7.70.
`CC=Cn1c(C)c(C)c2ccnc(CNc3ccc(F)cc3)c21` [Example 108, N-(2,3-dimethyl-1-propenyl-1H-pyrrolo[2,3-c]pyridin-7-ylmethyl)-4-fluorophenylamine hydrochloride]: the pIC50 is 6.37.
`CCn1c(C)c(C)c2cc(C(=O)N3CCSCC3)nc(N3CCc4ccccc4C3)c21` [Example 808, [7-(3,4-dihydro-1H-isoquinolin-2-yl)-1-ethyl-2,3-dimethyl-1H-pyrrolo[2,3-c]pyridin-5-yl]-(thiomorpholin-4-yl)-methanone hydrochloride]: the pIC50 was 7.26.
Next, `Cc1nc(Cn2c(C)c(C)c3ccnc(N4CCc5ccc(F)cc5C4C)c32)cs1` (centres unmarked) [Example 551, 2-[2,3-dimethyl-1-(2-methylthiazol-4-ylmethyl)-1H-pyrrolo[2,3-c]pyridin-7-yl]-7-fluoro-1-methyl-1,2,3,4-tetrahydroisoquinoline hydrochloride]: 6.49; `CCn1c(C)c(C)c2cc(C(=O)N3CCN(C)CC3)nc(N3CCc4ccccc4C3)c21` [Example 782, [7-(3,4-dihydro-1H-isoquinolin-2-yl)-1-ethyl-2,3-dimethyl-1H-pyrrolo[2,3-c]pyridin-5-yl]-(4-methylpiperazin-1-yl)-methanone hydrochloride]: 9.00.
`Cc1c(C)n(CC2CC2)c2c(NCc3ccc(F)cc3)nccc12` [Example 226, 1-cyclopropylmethyl-7-(4-fluorobenzylamino)-2,3-dimethyl-1H-pyrrolo[2,3-c]pyridine hydrochloride] had a pIC50 of 7.15.
As to `Cc1cccc(Cn2c(C)c(C)c3cc(CN4CCN(C)CC4)nc(N4CCc5ccccc5C4)c32)c1` [Example 878, 2-[2,3-dimethyl-1-(3-methylbenzyl)-5-(4-methylpiperazin-1-ylmethyl)-1H-pyrrolo[2,3-c]pyridin-7-yl]-1,2,3,4-tetrahydroisoquinoline hydrochloride], the pIC50 was 6.82.
In turn, `COCCn1c(C)c(C)c2cc(C(=O)O)nc(N3CCc4ccccc4C3)c21` [Example 734, 7-(3,4-dihydro-1H-isoquinolin-2-yl)-1-(2-methoxyethyl)-2,3-dimethyl-1H-pyrrolo[2,3-c]pyridin-5-carboxylic acid] had a pIC50 of 6.44.
Next, `Cc1c(C)n(Cc2ccccc2)c2c(N3CCc4ccccc4C3)nc(C(=O)N3CCN(C)CC3)cc12` [Example 819, [1-benzyl-7-(3,4-dihydro-1H-isoquinolin-2-yl)-2,3-dimethyl-1H-pyrrolo[2,3-c]pyridin-5-yl]-(4-methylpiperazin-1-yl)-methanone hydrochloride]: 7.92.
`Cc1c(C)n(Cc2cccc(Cl)c2)c2c(N3CCc4ccccc4C3)nc(CN3CCN(C)CC3)cc12` [Example 875, 2-[1-(3-chlorobenzyl)-2,3-dimethyl-5-(4-methylpiperazin-1-ylmethyl)-1H-pyrrolo[2,3-c]pyridin-7-yl]-1,2,3,4-tetrahydroisoquinoline hydrochloride] gave a pIC50 of 6.59.
Next, `Cc1[nH]c2c(N3CCc4cc(F)ccc4C3C)nccc2c1C` (centres unmarked) [Example 561, 6-fluoro-2-(2,3-dimethyl-1H-pyrrolo[2,3-c]pyridin-7-yl)-1-methyl-1,2,3,4-tetrahydroisoquinoline hydrochloride]: 7.19; `Cc1c(C)n(Cc2ccccc2)c2c(N3CCc4ccccc4C3)nc(C(=O)N3CCSCC3)cc12` [Example 789, [1-benzyl-7-(3,4-dihydro-1H-isoquinolin-2-yl)-2,3-dimethyl-1H-pyrrolo[2,3-c]pyridin-5-yl]-(thiomorpholin-1-yl)-methanone hydrochloride]: 7.19; `COc1cccc(Cn2c(C)c(C)c3ccnc(N4CCc5ccccc5C4)c32)c1` [Example 510, 1-(3-methoxybenzyl)-7-(1,2,3,4-tetrahydroisoquinolin-2-yl)-2,3-dimethyl-1H-pyrrolo[2,3-c]pyridine hydrochloride]: 7.25.
Compound `CCCn1c(C)c(C)c2cc(C(=O)N3CCCCC3)nc(N3CCc4ccccc4C3)c21` [Example 801, [7-(3,4-dihydro-1H-isoquinolin-2-yl)-2,3-dimethyl-1-propyl-1H-pyrrolo[2,3-c]pyridin-5-yl]-(piperidin-1-yl)-methanone hydrochloride] showed a pIC50 of 6.80.
`CCn1c(C)c(C)c2cc(C(=O)O)nc(N3CCc4ccccc4C3)c21` [Example 738, 7-(3,4-dihydro-1H-isoquinolin-2-yl)-1-ethyl-2,3-dimethyl-1H-pyrrolo[2,3-c]pyridin-5-carboxylic acid] showed a pIC50 of 6.48.
Take `CCN1CCN(C(=O)c2cc3c(C)c(C)n(Cc4cccc(OC)c4)c3c(N3CCc4ccccc4C3)n2)CC1` [Example 824, [7-(3,4-dihydro-1H-isoquinolin-2-yl)-1-(3-methoxybenzyl)-2,3-dimethyl-1H-pyrrolo[2,3-c]pyridin-5-yl]-(4-ethylpiperazin-1-yl)-methanone hydrochloride]: the pIC50 is 7.48.
The compound `COCCn1c(C)c(C)c2ccnc(N3CCc4ccccc4C3)c21` [Example 499, 1-(2-methoxyethyl)-7-(1,2,3,4-tetrahydroisoquinolin-2-yl)-2,3-dimethyl-1H-pyrrolo[2,3-c]pyridine hydrochloride] had a pIC50 of 7.19.
In turn, `CCC1c2ccccc2CCN1c1nccc2c(C)c(C)[nH]c12` (centres unmarked) [Example 574, 2-(2,3-dimethyl-1H-pyrrolo[2,3-c]pyridin-7-yl)-1-ethyl-1,2,3,4-tetrahydroisoquinoline hydrochloride] showed a negative-log IC50 (pIC50) of 6.38.
Next, `CCc1c(C)c2ccnc(N3CCc4ccccc4C3)c2n1C` [Example 609, 2-ethyl-1,3-dimethyl-7-(1,2,3,4-tetrahydroisoquinolin-2-yl)-1H-pyrrolo[2,3-c]pyridine hydrochloride]: 6.42; `Cc1c(C)n(Cc2ccccc2F)c2c(N(C)Cc3ccc(F)cc3)nccc12` [Example 147, 1-(2-fluorobenzyl)-7-[N-(4-fluorobenzyl)-N-methyl]amino-2,3-dimethyl-1H-pyrrolo[2,3-c]-pyridine hydrochloride]: 6.70; `COCCn1c(C)c(C)c2cc(C(=O)N3CCN(C)CC3)nc(N3CCc4ccccc4C3)c21` [Example 821, [7-(3,4-dihydro-1H-isoquinolin-2-yl)-1-(2-methoxyethyl)-2,3-dimethyl-1H-pyrrolo[2,3-c]pyridin-5-yl]-(4-methylpiperazin-1-yl)-methanone hydrochloride]: 7.59.
On to `Cc1c(C)n(Cc2cccc(F)c2)c2c(N3CCc4ccc(F)cc4C3C)nccc12` (centres unmarked) [Example 542, 7-fluoro-2-[1-(3-fluorobenzyl)-2,3-dimethyl-1H-pyrrolo[2,3-c]pyridin-7-yl]-1-methyl-1,2,3,4-tetrahydroisoquinoline hydrochloride], for which the negative-log IC50 (pIC50) was 6.82.
In the case of `Cc1c(C)n(Cc2ccccc2)c2c(N3CCc4ccccc4C3)nc(C(=O)N3CCOCC3)cc12` [Example 764, [1-benzyl-7-(3,4-dihydro-1H-isoquinolin-2-yl)-2,3-dimethyl-1H-pyrrolo[2,3-c]pyridin-5-yl]-(morpholin-4-yl)-methanone], the pIC50 was 7.36.
On to `Cc1c(C)n(CC2CC2)c2c(COc3ccc(F)cc3)nccc12` [Example 7, 1-cyclopropylmethyl-7-(4-fluorophenoxymethyl)-2,3-dimethyl-1H-pyrrolo[2,3-c]pyridine hydrochloride], for which the pIC50 is 6.42.
Take `Cc1c(C)n(Cc2cccc(F)c2)c2c(N3CCc4ccc(Cl)cc4C3C)nccc12` (centres unmarked) [Example 539, 7-chloro-2-[1-(3-fluorobenzyl)-2,3-dimethyl-1H-pyrrolo[2,3-c]pyridin-7-yl]-1-methyl-1,2,3,4-tetrahydroisoquinoline hydrochloride]: the pIC50 was 6.60.

In general, pIC50 refers to −log10 of the IC50, conventionally taken in molar units. Higher therefore signals a small IC50.
